The source of these data is US7132418B2, “Peptidyl heterocyclic ketones useful as tryptase inhibitors” (Ortho-McNeil Pharmaceutical, Inc., priority 1999, dated 2006).

The conditions of assay [1]: compared with placebo, 16 mild asthmatics, nebulized dry powder formulation; cited from earlier work.
A further assay has as its target T1, Bovine type 1 trypsin (Bos taurus, UniProt P00760).
T1 construct: purchased Sigma
T1 sequence (P00760 24-246): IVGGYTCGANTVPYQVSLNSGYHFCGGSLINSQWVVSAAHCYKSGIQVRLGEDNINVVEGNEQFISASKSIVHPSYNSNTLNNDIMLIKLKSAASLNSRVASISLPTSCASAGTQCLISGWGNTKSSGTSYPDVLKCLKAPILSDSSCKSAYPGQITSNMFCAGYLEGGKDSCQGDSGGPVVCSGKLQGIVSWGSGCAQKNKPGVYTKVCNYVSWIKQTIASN
Description: Trypsin IC50 method, chromogenic substrate hydrolysis. The class given is biochemical. The conditions noted are these: 3.2 U/ml bovine type 1 trypsin, 1.0 mM Spectrozyme TRY. Here is the method: (§1) The enzyme reaction is started by the addition of enzyme ([E]: 1.0 nM human Lung Tryptase; Cortex Biochem CP3033). Data is collected over a period of 30 min. and the initial rate of substrate hydrolysis (Vo (mOD/min)) is calculated. Inhibition is calculated by comparing to wells containing no inhibitor (vehicle) and IC50s are determined using a four parameter fit logistics model. • Trypsin IC50 Method: Inhibition of trypsin-catalyzed hydrolysis rates were measured using the same method as the tryptase procedure. Bovine type 1 trypsin (Sigma) and Spectrozyme® TRY (Cbo-Gly-D-Ala-Arg-pNA.AcOH, American Diagnostics) replaced their tryptase equivalents at concentrations of 3.2 U/ml trypsin and 1.0 mM Spectrozyme® TRY.

The target of the next assay is T2, human Lung Tryptase.
T2 construct: 1.0 nM human Lung Tryptase
The assay can be described thus: Tryptase IC50 method, chromogenic substrate hydrolysis. The class given is biochemical. The following applies: 1.0 nM human lung tryptase, 500 μM N-p-Tosyl-GLY-PRO-LYS-pNA, 37° C. The method, then:
as §1

A further assay concerns trypsin. The conditions noted are these: pancreatic agents, comparison values; cited from earlier work.

For the molecule `NC(=O)[C@@H]1CCCN1C(=O)[C@H](CCCN=C(N)N)NC(=O)c1ccc2ccccc2c1O` [APC-366], in assay [1], the “improvement for the late airway response” value was 33% and the “mean maximum decrease of forced expiratory volume in one second for late airway hyperresponsiveness” value is on record as 21%. For `CC(=O)N[C@H]1CCC[C@H]1C(=O)NC(CCCNC(=N)N)C(=O)c1nc2ccccc2s1` (stereo partly drawn) [Compound 3, cis-2-Acetylamino-N-[(1S)-4-[(aminoiminomethyl)amino]-1-(2-benzothiazolylcarbonyl)butyl]-1-cyclopentanecarboxamide], the IC50 was determined as 0.36 ± 0.03 µM on Bovine type 1 trypsin and 1.7 ± 0.7 µM against human Lung Tryptase. `CS(=O)(=O)N1C[C@H](O)C[C@H]1C(=O)NC(CCCNC(=N)N)C(=O)c1nc2ccccc2s1` (stereo partly drawn) [Compound 5, (2S,4R)-N-[4-[(aminoiminomethyl)amino]-1-(2-benzothiazolylcarbonyl)butyl]-4-hydroxy-1-methanesulfonyl-2-pyrrolidinecarboxamide]: the IC50 against Bovine type 1 trypsin worked out at 0.21 µM; on human Lung Tryptase, 0.1 ± 0.01 µM. On to `CS(=O)(=O)N1CCC[C@H]1C(=O)NC(CCCNC(=N)N)C(=O)c1nc2ccccc2s1` (stereo partly drawn) [Compound 6, (2S)-N-[4-[(aminoiminomethyl)amino]-1-(2-benzothiazolylcarbonyl)butyl]-1-methanesulfonyl-2-pyrrolidinecarboxamide], for which the IC50 came out at 0.11 µM at Bovine type 1 trypsin and 0.14 ± 0.08 µM at human Lung Tryptase. Taken in the same sequence, the figures for `Cc1ccc(S(=O)(=O)N2CCC[C@H]2C(=O)NC(CCCNC(=N)N)C(=O)c2nc3ccccc3s2)cc1` (stereo partly drawn) [Compound 7, (2S)-N-[4-[(Aminoiminomethyl)amino]-1-(2-benzothiazolylcarbonyl)butyl]-1-[(4-methylphenyl)sulfonyl]-2-pyrrolidinecarboxamide] were 0.23 ± 0.11 µM and 1.4 ± 0.8 µM. For the molecule `CC(=O)N1C[C@H]2C[C@H]2C1C(=O)NC(CCCNC(=N)N)C(=O)c1nc2ccccc2s1` (stereo partly drawn) [Compound 8, (2S)-trans-3-Acetyl-N-[4-[(aminoiminomethyl)amino]-1-(2-benzothiazolylcarbonyl)butyl]-3-azabicyclo(3.1.0)hexane-2-carboxamide], the IC50 came out at 0.19 µM at Bovine type 1 trypsin and 0.11 ± 0.04 µM against human Lung Tryptase. `COC(=O)N1CCC[C@H]1C(=O)NC(CCCNC(=N)N)C(=O)c1nc2ccccc2s1` (stereo partly drawn) [Compound 11, (2S)-N-[4-[(Aminoiminomethyl)amino]-1-(2-benzothiazolylcarbonyl)butyl]-1,2-pyrrolidinedicarboxamide, 1-methyl ester]: the IC50 was 0.039 µM against Bovine type 1 trypsin and 2.4 ± 0.9 µM against human Lung Tryptase. Consider `N=C(N)NCCCC(NC(=O)C1CCCCC1C(N)=O)C(=O)c1nc2ccccc2s1` (stereo not drawn) [Compound 16, N-[4-[(Aminoiminomethyl)amino]-1-(2-benzothiazolylcarbonyl)butyl]-1,2-cyclohexanedicarboxamide], for which the IC50 on Bovine type 1 trypsin came out at 0.16 µM; against human Lung Tryptase, 0.18 ± 0.07 µM.

For the molecule `CC(=O)NC1CCC(C(=O)NC(CCCNC(=N)N)C(=O)c2nc3ccccc3s2)CC1` (stereo not drawn) [Compound 17, 4-Acetamido-N-[4-[(aminoiminomethyl)amino]-1-(2-benzothiazolylcarbonyl)butyl]-cyclohexanecarboxamide], the IC50 against Bovine type 1 trypsin turned out to be 2.4 µM; against human Lung Tryptase, 9.4 ± 5.7 µM. As for `CC(=O)N[C@H]1CCCN(CC(=O)NC(CCCNC(=N)N)C(=O)c2nc3ccccc3s2)C1=O` (stereo partly drawn) [Compound 19, (S)-3-Acetamido-N-[4-[(aminoiminomethyl)amino]-1-(2-benzothiazolylcarbonyl)butyl]-2oxo-1-piperidineacetamide], the IC50 against Bovine type 1 trypsin was determined as 0.32 µM; at human Lung Tryptase, 12 ± 5 µM. Turning to `N=C(N)NCCCC(NC(=O)CCC(N)=O)C(=O)c1nc2ccccc2s1` (stereo not drawn) [Compound 23, N-[4-[(Aminoiminomethyl)amino]-1-(2-benzothiazolylcarbonyl)butyl]butanediamide], the IC50 worked out at 0.093 ± 0.068 µM against Bovine type 1 trypsin and 0.26 ± 0.01 µM on human Lung Tryptase. Taken in the same sequence, the figures for `CCCC(CCC)C(=O)N[C@@H](CC(=O)OC)C(=O)N1CCC[C@H]1C(=O)N[C@@H](CCCNC(=N)N)C(=O)c1nc2ccccc2s1` [Compound 26, N-(1-Oxo-2-propylpentyl)-L-α-aspartyl-N-[4-[(aminoiminomethyl)amino]-1-(2-benzothiazolylcarbonyl)butyl]-L-prolinamide, methyl ester] were 0.048 ± 0.001 µM and 0.11 ± 0.01 µM. Take `N=C(N)NCCC[C@H](NC(=O)[C@@H]1CCCN1C(=O)[C@@H](CC1CCCCC1)NCC(=O)O)C(=O)c1nc2ccccc2s1` [Compound 27, N-(Carboxymethyl)-3-cyclohexyl-D-alanyl-N-[(1S)-4-[(aminoiminomethyl)amino]-1-(2-benzothiazolylcarbonyl)butyl]-L-prolinamide]: the IC50 came to 0.036 ± 0.001 µM at Bovine type 1 trypsin and 0.034 ± 0.003 µM at human Lung Tryptase. `N=C(N)NCCC[C@H](NC(=O)CN1CCCC[C@H](NS(=O)(=O)Cc2ccccc2)C1=O)C(=O)c1nc2ccccc2s1` [Compound 28, (3S)N-[(1S)-4-[(Aminoiminomethyl)amino]-1-(2-benzothiazolylcarbonyl)butyl]hexahydro-2-oxo-3-[[(phenylmethyl)sulfonyl]amino]-1H-azepine-1-acetamide]: the half-inhibitory concentration (IC50) on Bovine type 1 trypsin turned out to be 0.042 ± 0.001 µM; against human Lung Tryptase, 0.1 ± 0.04 µM.

Turning to `N=C(N)NCCC[C@H](NC(=O)[C@@H]1CCCN1C(=O)[C@H](CO)NS(=O)(=O)c1cccc2ccccc12)C(=O)c1nc2ccccc2s1` [Compound 29], the results for the IC50 on Bovine type 1 trypsin and against human Lung Tryptase were 0.058 ± 0.012 µM and 0.014 ± 0.005 µM, respectively.

Consider `CN[C@H](Cc1ccccc1)C(=O)N1CCC[C@H]1C(=O)N[C@@H](CC1CCCN(C(=N)N)C1)C(=O)c1nc2ccccc2s1` (stereo partly drawn) [Compound 30, N-Methyl-D-phenylalanyl-N-[(2S)-[1-(aminoiminomethyl)-3-piperidinyl]-1-(2-benzothiazolylcarbonyl)ethyl]-L-prolinamide], for which the results for the IC50 on Bovine type 1 trypsin and on human Lung Tryptase were 0.11 ± 0.07 µM and 0.036 ± 0.004 µM, respectively. The matching figures for `CN[C@H](Cc1ccccc1)C(=O)N1CCC[C@H]1C(=O)N[C@@H](Cc1cccc(C(=N)N)c1)C(=O)c1nc2ccccc2s1` [Compound 31, (S)—N-methyl-D-phenylalanyl-N-[1-[[3-(aminoiminomethyl)phenyl]methyl]-2-(2-benzothiazolyl)-2-oxoethyl]-L-prolinamide]: 0.24 µM and 0.29 ± 0.03 µM.

In the case of `CC(=O)N[C@@H](CC1CCCCC1)C(=O)NC(CCCNC(=N)N)C(=O)c1nc2ccccc2s1` (stereo partly drawn) [Compound 32], the IC50 against Bovine type 1 trypsin stood at 0.017 µM; on human Lung Tryptase, 0.44 µM. As for `CC(=O)N[C@H](C(=O)NC(CCCNC(=N)N)C(=O)c1nc2ccccc2s1)C(C)C` (stereo partly drawn) [Compound 33], the IC50 on Bovine type 1 trypsin came out at 0.019 µM; against human Lung Tryptase it was 0.18 ± 0.01 µM. For `N=C(N)NCCCC(NC(=O)[C@@H]1CCCN1C(=O)c1ccccc1)C(=O)c1nc2ccccc2s1` (stereo partly drawn) [Compound 34], the values for the IC50 against Bovine type 1 trypsin and on human Lung Tryptase were 0.046 µM and 0.34 µM, respectively. `CN(C)C(=O)COC(=O)Cc1ccc(OC(=O)c2ccc(NC(=N)N)cc2)cc1` [camostat mesilate]: the IC50 with trypsin is 0.01 µM. Take `N=C(N)c1ccc2cc(OC(=O)c3ccc(N=C(N)N)cc3)ccc2c1` [nafamostat]: in the assay with trypsin, the IC50 was 0.013 µM.
